Experimental data from patent publication US10172868B2, “Substituted quinazolines for inhibiting kinase activity” (NeuPharma, Inc., priority 2013, dated 2019).

How the values were obtained:
[1] = molecular target: EGFR (ErbB1) L858R (Homo sapiens (Human), UniProt P00533, L858R); assay: Z'-LYTE kinase inhibition assay, EGFR L858R; format: biochemical; settings: read-out: % inhibition against EGFR L858R (Compound at 1 μM)
Protocol: Inhibitory activities of compounds against BTK, EGFR and EGFR mutants (EGFR L858R, EGFR T790M, EGFR L858R/T790M), FGFR1, FGFR2, JAK2, JAK3 and KDR were measured by Invitrogen using Z'-LYTE® Method as briefly described in the following. Test Compounds are screened in 1% DMSO (final) in the well. For 10 point titrations, 3-fold serial dilutions are conducted from the starting concentration. All ATP Solutions are diluted to a 4× working concentration in Kinase Buffer (50 mM HEPES pH 7.5, 0.01% BRIJ-35, 10 mM MgCl2, 1 mM EGTA). Peptide/Kinase Mixtures are diluted to a 2× working concentration in the appropriate Kinase Buffers as described below. (ii) Peptide/Kinase Mixtures for Measurement of EGFR (ErbB1) L858R: The 2×EGFR (ErbB1) L858R/[…] mixture is prepared in 50 mM HEPES pH 7.5, 0.01% BRIJ-35, 10 mM MgCl2, 4 mM MnCl2, 1 mM EGTA, 2 mM DTT. The final 10 μL Kinase Reaction consists of 0.2-1.68 ng EGFR (ErbB1) L858R and 2 μM […] in 50 mM HEPES pH 7.5. 0.01% BRIJ-35, 10 mM MgCl2. 2 mM MnCl2, 1 mM EGTA, 1 mM DTT. After the 1 hour Kinase Reaction incubation, 5 μL of a 1:64 dilution of Development Reagent B is added. Reaction starts by 30-second shaking of mixture consisting of 2.5 μL 4× test compound, […] 2× kinase reaction mixture and 2.5 μL 4×ATP Solution on Bar-coded Corning, low volume NBS, black 384-well plate (Corning Cat. #3676). Then the mixture is incubated for 60-minute at room temperature for the kinase reaction, followed by addition of 5 μL of a 1:1024 dilution of development reagent A and 30-second plate shake. The mixture is then incubated for another 60-minute at room temperature for development reaction. Finally fluorescence is read by plate reader.

[2] = molecular target: JAK2 (Homo sapiens (Human), UniProt O60674); assay: Z'-LYTE kinase inhibition assay, JAK2; format: biochemical; settings: compound at 0.041 μM; read-out: % inhibition against JAK2
Chain of JAK2 (O60674 whole entry): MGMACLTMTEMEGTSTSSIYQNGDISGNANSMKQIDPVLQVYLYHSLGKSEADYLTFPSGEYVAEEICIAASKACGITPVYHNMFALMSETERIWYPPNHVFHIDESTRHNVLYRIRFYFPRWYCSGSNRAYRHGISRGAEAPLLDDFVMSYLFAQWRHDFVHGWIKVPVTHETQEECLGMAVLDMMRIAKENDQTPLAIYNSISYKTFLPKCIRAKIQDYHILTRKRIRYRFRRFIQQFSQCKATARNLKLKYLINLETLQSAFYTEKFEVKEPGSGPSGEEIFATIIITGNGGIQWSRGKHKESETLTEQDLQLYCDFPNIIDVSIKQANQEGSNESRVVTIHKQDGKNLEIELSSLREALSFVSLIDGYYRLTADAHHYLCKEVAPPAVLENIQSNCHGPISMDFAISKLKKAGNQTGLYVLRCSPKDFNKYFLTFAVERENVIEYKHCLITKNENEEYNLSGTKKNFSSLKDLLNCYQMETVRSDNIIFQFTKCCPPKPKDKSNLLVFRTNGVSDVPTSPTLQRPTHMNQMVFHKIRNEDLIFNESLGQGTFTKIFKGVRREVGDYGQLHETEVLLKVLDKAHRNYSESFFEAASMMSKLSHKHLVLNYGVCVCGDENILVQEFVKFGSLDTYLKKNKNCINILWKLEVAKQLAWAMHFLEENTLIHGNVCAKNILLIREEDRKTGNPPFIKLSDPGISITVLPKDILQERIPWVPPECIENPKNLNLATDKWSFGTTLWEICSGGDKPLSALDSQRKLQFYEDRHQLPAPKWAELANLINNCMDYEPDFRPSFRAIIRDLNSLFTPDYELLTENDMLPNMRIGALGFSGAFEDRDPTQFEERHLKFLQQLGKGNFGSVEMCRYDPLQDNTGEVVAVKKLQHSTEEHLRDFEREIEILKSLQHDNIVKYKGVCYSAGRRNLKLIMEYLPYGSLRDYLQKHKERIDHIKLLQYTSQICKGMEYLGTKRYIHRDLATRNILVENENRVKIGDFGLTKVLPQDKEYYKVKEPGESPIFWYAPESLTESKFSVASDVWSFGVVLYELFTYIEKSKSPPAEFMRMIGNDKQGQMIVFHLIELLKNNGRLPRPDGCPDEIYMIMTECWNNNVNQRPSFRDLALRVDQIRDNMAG
Protocol: Inhibitory activities of compounds against BTK, EGFR and EGFR mutants (EGFR L858R, EGFR T790M, EGFR L858R/T790M), FGFR1, FGFR2, JAK2, JAK3 and KDR were measured by Invitrogen using Z'-LYTE® Method as briefly described in the following.
Test Compounds are screened in 1% DMSO (final) in the well. For 10 point titrations, 3-fold serial dilutions are conducted from the starting concentration. All ATP Solutions are diluted to a 4× working concentration in Kinase Buffer (50 mM HEPES pH 7.5, 0.01% BRIJ-35, 10 mM MgCl2, 1 mM EGTA). Peptide/Kinase Mixtures are diluted to a 2× working concentration in the appropriate Kinase Buffers as described below.
(v) Peptide/Kinase Mixtures for Measurement of JAK2:
The 2×JAK2/Tyr 06 mixture is prepared in 50 mM HEPES pH 7.5, 0.01% BRIJ-35, 10 mM MgCl2, 1 mM EGTA. The final 10 μL Kinase Reaction consists of 0.06-0.81 ng JAK2 and 2 μM Tyr 06 in 50 mM HEPES pH 7.5, 0.01% BRIJ-35, 10 mM MgCl2, 1 mM EGTA. After the 1 hour Kinase Reaction incubation, 5 μL of a 1:64 dilution of Development Reagent A is added.
Reaction starts by 30-second shaking of mixture consisting of 2.5 μL 4× test compound, […] 2× kinase reaction mixture and 2.5 μL 4×ATP Solution on Bar-coded Corning, low volume NBS, black 384-well plate (Corning Cat. #3676). Then the mixture is incubated for 60-minute at room temperature for the kinase reaction, followed by addition of 5 μL of a 1:1024 dilution of development reagent A and 30-second plate shake. The mixture is then incubated for another 60-minute at room temperature for development reaction. Finally fluorescence is read by plate reader.

[3] = molecular target: EGFR (ErbB1) T790M (Homo sapiens (Human), UniProt P00533, T790M); assay: Z'-LYTE kinase inhibition assay, EGFR T790M; format: biochemical; settings: read-out: % inhibition against EGFR T790M (Compound at 1 μM)
Chain of EGFR (ErbB1) T790M (P00533 25-1210 T790M): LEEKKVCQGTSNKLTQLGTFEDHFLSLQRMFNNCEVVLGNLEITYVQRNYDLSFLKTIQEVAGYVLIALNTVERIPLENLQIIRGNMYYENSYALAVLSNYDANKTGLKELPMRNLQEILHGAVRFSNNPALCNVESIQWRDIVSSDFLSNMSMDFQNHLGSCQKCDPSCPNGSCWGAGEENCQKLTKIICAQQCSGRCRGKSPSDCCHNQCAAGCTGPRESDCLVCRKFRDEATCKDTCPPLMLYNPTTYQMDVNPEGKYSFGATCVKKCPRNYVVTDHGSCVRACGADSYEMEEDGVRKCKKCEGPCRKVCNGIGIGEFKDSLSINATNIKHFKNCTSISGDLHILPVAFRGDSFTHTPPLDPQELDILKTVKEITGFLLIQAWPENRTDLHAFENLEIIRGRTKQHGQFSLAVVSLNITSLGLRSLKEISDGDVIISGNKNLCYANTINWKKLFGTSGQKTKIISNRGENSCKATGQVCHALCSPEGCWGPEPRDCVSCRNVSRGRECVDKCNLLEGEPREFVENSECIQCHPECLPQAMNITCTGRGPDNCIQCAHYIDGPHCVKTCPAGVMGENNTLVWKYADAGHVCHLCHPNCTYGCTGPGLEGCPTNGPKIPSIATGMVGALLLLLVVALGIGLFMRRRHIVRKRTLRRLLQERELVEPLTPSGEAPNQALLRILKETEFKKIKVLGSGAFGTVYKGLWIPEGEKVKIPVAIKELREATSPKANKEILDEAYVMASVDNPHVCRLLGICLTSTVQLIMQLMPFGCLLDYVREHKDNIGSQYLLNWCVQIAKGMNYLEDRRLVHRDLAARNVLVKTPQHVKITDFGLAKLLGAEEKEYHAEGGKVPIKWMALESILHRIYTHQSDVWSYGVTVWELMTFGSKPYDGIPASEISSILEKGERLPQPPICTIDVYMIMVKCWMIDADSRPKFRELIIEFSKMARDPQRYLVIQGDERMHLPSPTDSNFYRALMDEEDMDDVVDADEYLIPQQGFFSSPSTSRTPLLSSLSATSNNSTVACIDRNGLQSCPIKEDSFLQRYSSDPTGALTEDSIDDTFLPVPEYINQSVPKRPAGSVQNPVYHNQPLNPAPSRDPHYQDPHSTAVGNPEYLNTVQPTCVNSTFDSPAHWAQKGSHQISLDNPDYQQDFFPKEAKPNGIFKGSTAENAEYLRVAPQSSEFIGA
Protocol: Inhibitory activities of compounds against BTK, EGFR and EGFR mutants (EGFR L858R, EGFR T790M, EGFR L858R/T790M), FGFR1, FGFR2, JAK2, JAK3 and KDR were measured by Invitrogen using Z'-LYTE® Method as briefly described in the following. Test Compounds are screened in 1% DMSO (final) in the well. For 10 point titrations, 3-fold serial dilutions are conducted from the starting concentration. All ATP Solutions are diluted to a 4× working concentration in Kinase Buffer (50 mM HEPES pH 7.5, 0.01% BRIJ-35, 10 mM MgCl2, 1 mM EGTA). Peptide/Kinase Mixtures are diluted to a 2× working concentration in the appropriate Kinase Buffers as described below. (iii) Peptide/Kinase Mixtures for Measurement of EGFR (ErbB1) T790M: […] After the 1 hour Kinase Reaction incubation, 5 μL of a 1:64 dilution of Development Reagent B is added. Reaction starts by 30-second shaking of mixture consisting of 2.5 μL 4× test compound, […] 2× kinase reaction mixture and 2.5 μL 4×ATP Solution on Bar-coded Corning, low volume NBS, black 384-well plate (Corning Cat. #3676). Then the mixture is incubated for 60-minute at room temperature for the kinase reaction, followed by addition of 5 μL of a 1:1024 dilution of development reagent A and 30-second plate shake. The mixture is then incubated for another 60-minute at room temperature for development reaction. Finally fluorescence is read by plate reader.

[4] = tested on: H3255 cells; assay: Inhibition of cancer cell growth, MTT assay, H3255; settings: Homo sapiens, NCI-H3255, 72 h, read-out: IC50 in H3255 cells
Protocol: Inhibition of cell growth by compounds was measured using MTT assay (Mosmann, T., Journal of Immunological Methods, 1983, 65, 55-63). Tumor cell lines were purchased from ATCC (American Type Culture Collection, Manassas, Va.). All cell lines were maintained in RPMI 1640 (Hyclone) supplemented with 10% fetal bovine serum (FBS, Hyclone), glutamine (2 mM, Hyclone), and antibiotics (penicillin 100 U/mL and streptomycin 50 μg/mL) at 37° C. in a humidified atmosphere of 5% CO2 in air. Taxol (as a positive control. Sigma) and compounds were dissolved in DMSO (Sigma), and the final concentration of DMSO in the medium was 1%. Tumor cells were plated in 96-well plates at densities of about 4000 cells/well of a 96-well plate and allowed to adhere/grow for 24 h. They were then treated with various concentrations of drug for 72 h, 3-(4,5-Dimethylthiazol-2-yl)-2,5-diphenyltetrazolium bromide (MTT, Sigma) was used to determine the number of viable cells at the time of compound addition and the number of cells remaining after 72 h compound exposure. The number of cells remaining after 72 h was compared to the number of viable cells at the time of compound addition by measuring the absorbance at 570 nm, allowing for the calculation of growth inhibition.
All concentrations of compounds were tested in triplicate and controls were averaged over 4 wells. IC50 was calculated by plotting the concentration of compound vs the percentage of inhibition in treated wells using GraphPad Prism 5.

Chain of EGFR (ErbB1) L858R (P00533 25-1210 L858R): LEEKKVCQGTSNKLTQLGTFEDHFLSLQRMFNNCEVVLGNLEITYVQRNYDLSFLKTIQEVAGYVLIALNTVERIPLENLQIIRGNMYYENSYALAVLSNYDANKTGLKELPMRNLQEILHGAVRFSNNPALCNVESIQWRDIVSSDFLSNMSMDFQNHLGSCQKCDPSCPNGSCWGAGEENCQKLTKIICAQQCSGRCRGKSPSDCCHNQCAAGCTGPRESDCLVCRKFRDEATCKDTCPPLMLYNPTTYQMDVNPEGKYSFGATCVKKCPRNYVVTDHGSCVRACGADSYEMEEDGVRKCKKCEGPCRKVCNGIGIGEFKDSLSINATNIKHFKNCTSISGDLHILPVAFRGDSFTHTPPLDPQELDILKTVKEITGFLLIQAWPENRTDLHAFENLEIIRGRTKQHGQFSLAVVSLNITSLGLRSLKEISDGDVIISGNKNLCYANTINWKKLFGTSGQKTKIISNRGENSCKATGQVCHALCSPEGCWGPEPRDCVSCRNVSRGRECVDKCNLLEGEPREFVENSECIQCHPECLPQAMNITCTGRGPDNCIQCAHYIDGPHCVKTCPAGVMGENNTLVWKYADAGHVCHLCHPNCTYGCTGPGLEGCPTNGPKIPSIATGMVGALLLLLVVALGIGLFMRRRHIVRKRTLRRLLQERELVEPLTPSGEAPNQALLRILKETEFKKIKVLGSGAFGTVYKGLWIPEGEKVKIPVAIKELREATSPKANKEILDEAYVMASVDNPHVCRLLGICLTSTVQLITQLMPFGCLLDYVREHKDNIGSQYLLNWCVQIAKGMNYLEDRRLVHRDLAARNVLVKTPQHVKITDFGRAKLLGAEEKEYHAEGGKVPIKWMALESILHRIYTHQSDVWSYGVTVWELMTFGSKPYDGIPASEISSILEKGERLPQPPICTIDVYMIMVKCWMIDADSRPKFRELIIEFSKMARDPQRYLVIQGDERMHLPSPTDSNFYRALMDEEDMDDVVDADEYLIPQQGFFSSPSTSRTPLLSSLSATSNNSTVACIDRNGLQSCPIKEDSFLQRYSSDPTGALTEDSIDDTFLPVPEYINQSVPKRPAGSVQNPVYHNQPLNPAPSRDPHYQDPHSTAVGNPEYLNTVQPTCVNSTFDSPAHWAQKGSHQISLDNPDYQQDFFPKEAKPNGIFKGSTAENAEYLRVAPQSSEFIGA

Row | Compound | inhibition at 1 µM [1] [%] | inhibition at 0.041 µM [2] [%] | inhibition at 1 µM [3] [%] | IC50 [4] [nM]
1 | c1ccc(-c2cccc3cnc(Nc4ccc(N5CCOCC5)cc4)nc23)cc1 [Example C004, N-(4-morpholinophenyl)-8-phenylquinazolin-2-amine] | < 50 | > 50 | < 50 | –
2 | C=CC(=O)Nc1cccc(-c2nccc3c(N)nc(Nc4ccc(N5CCOCC5)cc4)nc23)c1 [Example C005, N-(3-(4-amino-2-((4-morpholinophenyl)amino)pyrido[3,4-d]pyrimidin-8-yl)phenyl)acrylamide] | > 50 | < 50 | < 50 | –
3 | Fc1ccc(Cl)cc1-c1cccc2cnc(Nc3ccc(N4CCOCC4)cc3)nc12 [Example C007, 8-(5-chloro-2-fluorophenyl)-N-(4-morpholinophenyl)quinazolin-2-amine] | < 50 | – | < 50 | –
4 | Clc1cccc(-c2cccc3cnc(Nc4ccc(N5CCOCC5)cc4)nc23)c1 [Example C008, 8-(3-chlorophenyl)-N-(4-morpholinophenyl)quinazolin-2-amine] | < 50 | > 50 | < 50 | –
5 | Fc1cccc(-c2cccc3cnc(Nc4ccc(N5CCOCC5)cc4)nc23)c1 [Example C009, 8-(3-fluorophenyl)-N-(4-morpholinophenyl)quinazolin-2-amine] | < 50 | > 50 | < 50 | –
6 | Fc1ccccc1-c1cccc2cnc(Nc3ccc(N4CCOCC4)cc3)nc12 [Example C010, 8-(2-fluorophenyl)-N-(4-morpholinophenyl)quinazolin-2-amine] | < 50 | – | < 50 | –
7 | Clc1ccccc1-c1cccc2cnc(Nc3ccc(N4CCOCC4)cc3)nc12 [Example C011, 8-(2-chlorophenyl)-N-(4-morpholinophenyl)quinazolin-2-amine] | < 50 | – | < 50 | –
8 | C=CC(=O)Nc1cccc(-c2cccc3cnc(Nc4ccc(N5CCN(C)CC5)cc4)nc23)c1 [Example C021, N-(3-(2-((4-(4-methylpiperazin-1-yl)phenyl)amino)quinazolin-8-yl)phenyl)acrylamide] | – | > 50 | – | 100 to 500
9 | C=CC(=O)Nc1cccc(-c2cccc3cnc(Nc4ccc(N5CCN(C)CC5)nc4)nc23)c1 [Example C041, N-(3-(2-((6-(4-methylpiperazin-1-yl)pyridin-3-yl)amino)quinazolin-8-yl)phenyl)acrylamide] | – | – | – | > 500
10 | C=CC(=O)Nc1cccc(-c2cccc3cnc(Nc4ccc(N5CCN(CCO)CC5)cc4)nc23)c1 [Example C059, N-(3-(2-((4-(4-(2-hydroxyethyl)piperazin-1-yl)phenyl)amino)quinazolin-8-yl)phenyl)acrylamide] | – | – | – | 100 to 500

Results, then the molecule that gave them:

Row | inhibition at 1 µM [1] [%] | inhibition at 0.041 µM [2] [%] | inhibition at 1 µM [3] [%] | IC50 [4] [nM] | Compound
11 | > 50 | > 50 | > 50 | > 500 | C=CC(=O)Nc1cccc(-c2cccc3cnc(Nc4ccc(N5CCOCC5)cc4)nc23)c1 [Example C001, N-(3-(2-((4-morpholinophenyl)amino)quinazolin-8-yl)phenyl)acrylamide]
12 | < 50 | – | > 50 | > 500 | C=CC(=O)Nc1cccc(-c2cccc3cnc(Nc4ccc(N5CCOCC5)cc4OC)nc23)c1 [Example C002, N-(3-(2-((2-methoxy-4-morpholinophenyl)amino)quinazolin-8-yl)phenyl)acrylamide]
13 | > 50 | – | > 50 | > 500 | C=CC(=O)Nc1cccc(-c2cccc3cnc(Nc4ccc(N5CCN(C)CC5)cc4OC)nc23)c1 [Example C003, N-(3-(2-((2-methoxy-4-(4-methylpiperazin-1-yl)phenyl)amino)quinazolin-8-yl)phenyl)acrylamide]
14 | < 50 | < 50 | > 50 | – | C=CC(=O)Nc1cccc(-c2nccc3cnc(Nc4ccc(N5CCOCC5)cc4)nc23)c1 [Example C012, N-(3-(2-((4-morpholinophenyl)amino)pyrido[3,4-d]pyrimidin-8-yl)phenyl)acrylamide]
15 | – | – | – | > 500 | C=CC(=O)Nc1cccc(-c2cccc3cnc(Nc4ccc(N5CCN(C)CC5)cc4F)nc23)c1 [Example C044, N-(3-(2-((2-fluoro-4-(4-methylpiperazin-1-yl)phenyl)amino)quinazolin-8-yl)phenyl)acrylamide]
16 | – | > 50 | – | – | C=CC(=O)Nc1cccc(-c2cccc3cnc(Nc4ccc(N5CCN(CCF)CC5)cc4)nc23)c1 [Example C053, N-(3-(2-((4-(4-(2-fluoroethyl)piperazin-1-yl)phenyl)amino)quinazolin-8-yl)phenyl)acrylamide]
